Measurements: US20020128256A1, “Methods for the treatment or prevention of inflammatory diseases characterized by abnormal cell proliferation” (priority 1997, published 2002)

How the values were obtained:
ACHN = assay: SRB antiproliferative assay, ACHN; type: cell-based; conditions: ACHN (Renal); 5% FCS, 5 Day Incubation; read-out: SRB assay IC50
Method: (§1) The antiproliferative assays described herein were performed using standard aseptic procedures and universal precautions for the use of tissues. Cells were propagated using RPMI 1640 media (Gibco) containing 2% N 5% fetal calf serum (Biowhittaker) at 37° C., 5% CO2 and 95% humidity. The cells were passaged using Trypsin (Gibco). Prior to addition of test compound, the cells were harvested, the cell number counted and seeded at 10,000 cells/well in 100 μl 5% fetal calf serum (FCS) containing RPMI medium in 96-well plates and incubated overnight at 37° C., 5% CO2 and 95% humidity.
(§2) Following incubation, the cellular protein was determined with the ulforhodamine B (SRB) assay (Skehan P et al., 1990, J. Natl. Cancer Inst. 82:1107-1112).

HCT-15 = assay: SRB antiproliferative assay, HCT-15; type: cell-based; conditions: HCT-15 (Colon); 5% FCS, 5 Day Incubation; read-out: SRB assay IC50
Method: as §1, §2

HeLa = assay: SRB antiproliferative assay, HeLa; type: cell-based; conditions: HeLa (Cervical); 5% FCS, 5 Day Incubation; read-out: SRB assay IC50
Method: as §1, §2

SK-OV-3 = assay: SRB antiproliferative assay, SK-OV-3; type: cell-based; conditions: SK-OV-3 (Ovary); 5% FCS, 5 Day Incubation
Method: as §1, §2

U118MG = assay: SRB antiproliferative assay, U118MG; type: cell-based; conditions: U118MG (CNS); 5% FCS, 5 Day Incubation; read-out: SRB assay IC50
Method: as §1, §2

L929 = assay: SRB assay, normal cells L929; type: cell-based, mouse; conditions: L929 (Normal mouse); 5% FCS, 5 Day Incubation; read-out: SRB assay IC50
Method: as §1, §2

SK-MEL-28 = assay: SRB antiproliferative assay, SK-MEL-28; type: cell-based; conditions: SK-MEL-28 (Melanoma); 5% FCS, 5 Day Incubation; read-out: SRB assay IC50
Method: as §1, §2

HT29 = assay: SRB antiproliferative assay, HT29; type: cell-based; conditions: HT29 (Colon); 5% FCS, 5 Day Incubation; read-out: SRB assay IC50
Method: as §1, §2

MDA-MB-231 = assay: SRB antiproliferative assay, MDA-MB-231; type: cell-based; conditions: MDA-MB-23 (Breast); 5% FCS, 5 Day Incubation; read-out: SRB assay IC50
MMRU = assay: SRB antiproliferative assay, MMRU; type: cell-based, human; conditions: MMRU (Melanoma); 5% FCS, 5 Day Incubation; read-out: SRB assay IC50
Method: Cells were propagated using RPMI 1640 media (Gibco) containing 2% N 5% fetal calf serum (Biowhittaker) at 37° C., 5% CO2 and 95% humidity. The cells were passaged using Trypsin (Gibco). Prior to addition of test compound, the cells were harvested, the cell number counted and seeded at 10,000 cells/well in 100 μl 5% fetal calf serum (FCS) containing RPMI medium in 96-well plates and incubated overnight at 37° C., 5% CO2 and 95% humidity.
as §2

HTB174 = assay: SRB antiproliferative assay, HTB174; type: cell-based; conditions: HTB174 (Lung); 5% FCS, 5 Day Incubation; read-out: SRB assay IC50
Method: as §1, §2

A549 = assay: SRB antiproliferative assay, A549; type: cell-based; conditions: A549 (Lung); 5% FCS, 5 Day Incubation; read-out: SRB assay IC50
Method: as §1, §2

3T3 = assay: SRB assay, normal cells 3T3; type: cell-based, mouse; conditions: 3T3 (Normal mouse); 5% FCS, 5 Day Incubation; read-out: SRB assay IC50
Method: as §1, §2

HEPG2 = assay: SRB antiproliferative assay, HEPG2; type: cell-based; conditions: HEPG2 (Hepatocel); 5% FCS, 5 Day Incubation; read-out: SRB assay IC50
Method: as §1, §2

[1] = target: T1, Gardos channel of erythrocytes (Homo sapiens, UniProt O15554); assay: Gardos Channel Assay; type: cell-based
T1 construct: endogenous in cells; host or cells: erythrocytes

[2] = system: NIH 3T3 mouse fibroblast cells; assay: Mitogenic Assay (mitogen-induced cell proliferation); type: cell-based
MCF7 = assay: SRB antiproliferative assay, MCF7; type: cell-based; conditions: MCF7 (Breast); 5% FCS, 5 Day Incubation; read-out: SRB assay IC50
Method: as §1, §2

CaSki = assay: SRB antiproliferative assay, CaSki; type: cell-based; conditions: CaSki (Cervical); 5% FCS, 5 Day Incubation; read-out: SRB assay IC50
Method: as §1, §2

GM = assay: SRB assay, normal cells GM; type: cell-based, human; conditions: GM (Normal human); 5% FCS, 5 Day Incubation; read-out: SRB assay IC50
Method: as §1, §2

HUVEC = assay: SRB assay, normal cells HUVEC; type: cell-based, human; conditions: HUVEC (Normal human); 5% FCS, 5 Day Incubation; read-out: SRB assay IC50
Method: as §1, §2

DU-145 = assay: SRB antiproliferative assay, DU-145; type: cell-based; conditions: DU-145 (Prostate); 5% FCS, 5 Day Incubation; read-out: SRB assay IC50
Method: as §1, §2

Gardos channel [3] = target: T2, Gardos channel (Homo sapiens, UniProt O15554); design: reduces erythrocyte dehydration in patients with sickle cell disease; host or cells: erythrocytes of patients; conditions: oral therapy; cited from earlier work
red cell Gardos channel = target: T3, red cell Gardos channel (Mus musculus, UniProt O89109); conditions: oral administration; cited from earlier work
T3 construct: host or cells: red cells of SAD mouse

Gardos channel [4] = target: T2, Gardos channel; design: host or cells: sickle erythrocytes (printed for Clotrimazole only); conditions: in vitro, sickle erythrocytes; cited from earlier work
[5] = system: normal and cancer cell lines; conditions: cited from earlier work
[6] = system: MM-RU human melanoma cells; conditions: SCID mice, daily administration; cited from earlier work

T2 sequence (O15554 whole entry): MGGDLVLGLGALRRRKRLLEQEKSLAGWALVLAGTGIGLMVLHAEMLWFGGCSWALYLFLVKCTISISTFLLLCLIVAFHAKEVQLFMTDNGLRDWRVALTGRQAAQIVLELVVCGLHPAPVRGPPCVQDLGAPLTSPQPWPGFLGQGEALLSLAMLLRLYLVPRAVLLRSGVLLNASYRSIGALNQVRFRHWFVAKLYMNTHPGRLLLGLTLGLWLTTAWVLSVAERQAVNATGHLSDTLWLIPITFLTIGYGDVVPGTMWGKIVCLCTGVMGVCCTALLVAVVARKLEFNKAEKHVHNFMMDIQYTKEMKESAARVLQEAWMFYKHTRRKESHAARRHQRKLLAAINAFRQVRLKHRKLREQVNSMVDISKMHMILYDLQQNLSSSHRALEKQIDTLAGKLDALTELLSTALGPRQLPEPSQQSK
T1 sequence (O15554 whole entry): as above
T3 sequence (O89109 whole entry): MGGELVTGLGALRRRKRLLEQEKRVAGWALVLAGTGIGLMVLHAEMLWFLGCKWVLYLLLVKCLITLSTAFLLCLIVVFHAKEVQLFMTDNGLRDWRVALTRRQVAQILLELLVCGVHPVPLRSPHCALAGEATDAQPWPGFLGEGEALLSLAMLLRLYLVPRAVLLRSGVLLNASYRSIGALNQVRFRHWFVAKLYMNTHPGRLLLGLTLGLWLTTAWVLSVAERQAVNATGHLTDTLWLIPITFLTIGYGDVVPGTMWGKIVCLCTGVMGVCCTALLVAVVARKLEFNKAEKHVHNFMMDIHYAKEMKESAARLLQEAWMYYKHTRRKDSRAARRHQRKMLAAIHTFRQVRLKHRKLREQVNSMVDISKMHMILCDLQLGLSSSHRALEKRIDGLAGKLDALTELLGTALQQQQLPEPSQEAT

Molecule: 6-Chloro-3,3-di(4′-chlorophenyl)-2-N-oxime-3,3-diphenylindane [Compound 11]
- IC50 (ACHN): > 10 µM
- IC50 (HCT-15): 6.6 µM
- IC50 (HeLa): 5.1 µM
- IC50 (SK-OV-3): > 10 µM
- IC50 (U118MG): > 10 µM
- IC50 (L929): 8.6 µM
- IC50 (SK-MEL-28): 5.5 µM
- IC50 (HT29): 6.8 µM
- IC50 (MDA-MB-231): > 10 µM
- IC50 (MMRU): 6.2 µM
- IC50 (HTB174): 5.9 µM
- IC50 (A549): 8.8 µM
- IC50 (3T3): > 10 µM
- IC50 (HEPG2): 5.8 µM
- Gardos Channel Assay Inhibition (%) ([1]; measured at 10 μM compound): 50.0%
- IC50 ([2]; NIH 3T3 mouse fibroblast cells, mitogen-induced proliferation, read-out: Mitogenic Assay IC50): 3.4 µM
- Mitogenic Assay Inhibition (%) ([2]; measured at 10 μM compound, NIH 3T3 cells): 99.0%
- IC50 (MCF7): 4.4 µM
- IC50 (CaSki): 7 µM
- IC50 (GM): > 10 µM
- IC50 (HUVEC): 6.4 µM
- IC50 (DU-145): > 10 µM

Molecule: Clc1ccccc1C(c1ccccc1)(c1ccccc1)n1ccnc1 [Clotrimazole]
- Effect in patients with sickle cell disease (Gardos channel [3]): induces inhibition of the Gardos channel and reduces erythrocyte dehydration
- Effect on red cells in SAD mouse (red cell Gardos channel): inhibition of the red cell Gardos channel, increased red cell K^+ content, a decreased mean cell hemoglobin concentration (MCHC) and decreased cell density
- Ca2+-activated K+ transport and cell dehydration in sickle erythrocytes (Gardos channel [4]): blocks Ca^2+-activated K^+ transport and cell dehydration in sickle erythrocytes
- Rate of cell proliferation in vitro [5]: inhibits the rate of cell proliferation of normal and cancer cell lines in a reversible and dose-dependent manner
- inhibition at 10 µM ([1]; read-out: Gardos Channel Assay Inhibition (%)): 99.3%
- inhibition at 10 µM ([2]; Mus musculus, NIH3T3, measured at 10 μM compound, NIH 3T3 cells, read-out: Mitogenic Assay Inhibition (%)): 93%
- Number of lung metastases [6]: significant reduction in the number of lung metastases
